From paper PMC6783830 (Viruses, 2019)
Read-outs that look alike come from different tables or passages of the source.

Assays:
[1] = target: VSV RdRp complex (L and P proteins on N–RNA) (Vesicular stomatitis Indiana virus, UniProt P03523); assay type: biochemical
VSV [2] = assay: microbe, parasite or virus in culture; conditions: Vesicular stomatitis virus, BHK-21, in Mesocricetus auratus, 24 h, read-out: Anti-VSV Activity IC50 (VSV-induced metabolic shut-down)
in vitro [3] = conditions: human
VSV [4] = assay: microbe, parasite or virus in culture; conditions: Vesicular stomatitis virus, HeLa, in Homo sapiens, 65 h, read-out: Anti-VSV Activity IC50 (VSV-induced metabolic shut-down)
in vitro [5] = conditions: hamster
CHPV [6] = system: CHPV
HeLa cells [7] = system: HeLa cells
HPIV-3 [8] = assay: microbe, parasite or virus in culture; conditions: Human respirovirus 3, HeLa, 72 h, read-out: Anti-HPIV-3 activity IC50
CHPV [9] = assay: microbe, parasite or virus in culture; conditions: Chandipura virus, BHK-21, in Mesocricetus auratus, 24 h, read-out: Anti-CHPV Activity IC50 (CHPV-induced metabolic shut-down)
HPIV-3 [10] = system: HPIV-3
HeLa cells [11] = system: HeLa cells; remark: listed apart in the source
RABV [12] = assay: microbe, parasite or virus in culture; conditions: Lyssavirus rabies, in mouse/rat NG108-15, 48 h, read-out: Anti-RABV activity IC50 (RABV gene expression, luciferase)
[13] = target: VSV L protein (PRNTase domain) (Vesicular stomatitis Indiana virus, UniProt P03523); assay type: biochemical; conditions: at 10 µM
CHPV RNP = CHPV RNP (Chandipura virus, UniProt P13179); assay: biochemical
VSV RNP = VSV RNP (Vesicular stomatitis Indiana virus, UniProt P03523); assay: biochemical; assay type: biochemical; conditions: for inhibition at 20 µM: read-out: % Inhibition mRNA Synthesis (In vitro Transcription)
[14] = target: CHPV RdRp (L and P proteins) (Chandipura virus, UniProt P13179); assay: biochemical; conditions: read-out: inhibition of CHPV AC synthesis
VSV [15] = assay: microbe, parasite or virus in culture; assay type: cell-based; conditions: Vesicular stomatitis virus, BHK-21, in Mesocricetus auratus, 24 h, read-out: % Inhibition Nuclear Condensation (Cell Imaging)
VSV-AcGFP [16] = assay type: cell-based, Vesicular stomatitis virus in BHK-21 cells (hamster); conditions: 10 µM
VSV [17] = assay: microbe, parasite or virus in culture; assay type: cell-based; conditions: Vesicular stomatitis virus, BHK-21, in Mesocricetus auratus, 24 h, read-out: % Inhibition Metabolic Shut-down (CCK Assay)
VSV L protein = VSV L protein (Vesicular stomatitis Indiana virus, UniProt P03523); assay: biochemical; assay type: biochemical
VSV-AcGFP [18] = assay type: cell-based, Vesicular stomatitis virus in BHK-21 cells (hamster); conditions: 10 µM; remark: listed apart in the source
VSV [19] = assay type: cell-based, Vesicular stomatitis virus in BHK-21 cells (hamster)
VSV [20] = system: VSV
RABV [21] = system: RABV
BHK-21 cells = conditions: at 100 µM
HPIV-3 RNP = HPIV-3 RNP (Human parainfluenza 3 virus, UniProt P12577); assay type: biochemical, Human parainfluenza virus 3; conditions: at 10 µM

VSV L protein, sequence (P03523 whole entry, looked up): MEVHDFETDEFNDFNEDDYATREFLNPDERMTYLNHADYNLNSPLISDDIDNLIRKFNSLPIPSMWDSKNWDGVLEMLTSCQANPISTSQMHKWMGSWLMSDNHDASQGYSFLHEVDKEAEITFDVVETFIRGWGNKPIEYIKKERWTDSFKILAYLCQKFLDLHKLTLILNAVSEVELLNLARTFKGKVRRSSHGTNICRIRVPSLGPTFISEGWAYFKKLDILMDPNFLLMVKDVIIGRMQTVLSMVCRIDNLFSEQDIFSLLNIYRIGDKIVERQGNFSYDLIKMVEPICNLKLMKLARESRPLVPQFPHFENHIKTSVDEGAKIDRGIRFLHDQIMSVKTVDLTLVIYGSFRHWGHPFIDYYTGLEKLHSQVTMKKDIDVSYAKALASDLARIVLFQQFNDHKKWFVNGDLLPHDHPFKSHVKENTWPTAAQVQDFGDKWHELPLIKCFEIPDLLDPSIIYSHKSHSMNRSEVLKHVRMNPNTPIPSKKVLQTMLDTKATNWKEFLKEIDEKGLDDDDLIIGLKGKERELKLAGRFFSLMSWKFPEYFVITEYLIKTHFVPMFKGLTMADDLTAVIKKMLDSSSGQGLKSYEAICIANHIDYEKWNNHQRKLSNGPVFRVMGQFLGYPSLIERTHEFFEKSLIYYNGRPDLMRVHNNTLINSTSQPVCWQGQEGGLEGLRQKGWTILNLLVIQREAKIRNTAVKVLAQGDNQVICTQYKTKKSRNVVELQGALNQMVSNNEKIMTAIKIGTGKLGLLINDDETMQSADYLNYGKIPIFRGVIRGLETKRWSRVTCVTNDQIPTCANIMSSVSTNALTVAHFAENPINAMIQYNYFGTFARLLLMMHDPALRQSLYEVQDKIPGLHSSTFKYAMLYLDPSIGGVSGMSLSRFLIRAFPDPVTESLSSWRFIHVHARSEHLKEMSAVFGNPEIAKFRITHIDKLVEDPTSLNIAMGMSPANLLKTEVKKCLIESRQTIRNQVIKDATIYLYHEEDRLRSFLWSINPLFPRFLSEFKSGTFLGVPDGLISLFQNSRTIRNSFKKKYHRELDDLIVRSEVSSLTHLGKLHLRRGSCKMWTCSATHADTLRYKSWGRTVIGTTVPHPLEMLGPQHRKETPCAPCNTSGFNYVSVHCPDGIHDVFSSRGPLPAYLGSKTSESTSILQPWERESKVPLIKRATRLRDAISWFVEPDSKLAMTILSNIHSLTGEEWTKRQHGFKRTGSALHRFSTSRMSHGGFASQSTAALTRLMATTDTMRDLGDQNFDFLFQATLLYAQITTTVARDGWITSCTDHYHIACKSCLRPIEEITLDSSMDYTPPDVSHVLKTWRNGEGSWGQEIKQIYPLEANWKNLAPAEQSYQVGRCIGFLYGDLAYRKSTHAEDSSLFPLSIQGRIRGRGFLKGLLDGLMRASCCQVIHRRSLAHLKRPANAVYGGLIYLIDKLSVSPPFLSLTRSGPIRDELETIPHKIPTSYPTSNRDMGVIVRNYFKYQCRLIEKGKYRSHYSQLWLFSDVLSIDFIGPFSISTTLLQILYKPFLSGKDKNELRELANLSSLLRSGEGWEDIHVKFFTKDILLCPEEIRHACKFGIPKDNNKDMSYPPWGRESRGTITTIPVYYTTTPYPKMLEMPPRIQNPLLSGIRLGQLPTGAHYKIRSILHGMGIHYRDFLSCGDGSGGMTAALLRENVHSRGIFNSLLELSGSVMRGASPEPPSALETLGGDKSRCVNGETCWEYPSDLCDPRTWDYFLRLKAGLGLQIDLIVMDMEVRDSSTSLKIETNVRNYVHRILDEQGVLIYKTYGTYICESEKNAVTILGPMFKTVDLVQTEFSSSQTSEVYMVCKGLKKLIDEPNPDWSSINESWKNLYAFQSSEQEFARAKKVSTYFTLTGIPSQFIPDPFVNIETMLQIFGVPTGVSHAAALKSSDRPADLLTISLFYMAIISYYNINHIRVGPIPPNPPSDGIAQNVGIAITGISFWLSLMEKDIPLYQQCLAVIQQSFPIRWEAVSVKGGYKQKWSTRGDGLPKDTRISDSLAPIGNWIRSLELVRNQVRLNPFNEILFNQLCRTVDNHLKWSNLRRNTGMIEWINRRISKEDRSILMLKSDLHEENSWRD
VSV RNP, sequence (P03523 whole entry, looked up): as above

Compound: O=C(O)CN(CCN(CC(=O)O)CC(=O)O)CC(=O)O [EDTA, reference compound]
- synthesis of LeRNA1–18 (pulse) [1]: abolishes

Compound: NC(=O)c1ncn([C@@H]2O[C@H](CO)[C@@H](O)[C@H]2O)n1 [Ribavirin, reference compound]
- IC50 (VSV [2]): > 100 µM
- CC50 (in vitro [3]): > 100 µM
- IC50 (VSV [4]): 15 ± 1 µM
- CC50 (in vitro [5]): 86 ± 0.5 µM
- Anti-CHPV Activity SI (CC50/IC50) (CHPV [6]): <1
- Cytotoxicity CC50 (HeLa cells [7]): > 1 0 0 µM
- IC50 (HPIV-3 [8]): 21 µM
- IC50 (CHPV [9]): > 100 µM
- Anti-HPIV-3 activity SI (CC50/IC50) (HPIV-3 [10]): > 5

Compound: COc1ccc(C2CC(=O)Nc3cc(O)c(C)cc32)cc1Cn1cccn1 (stereo not shown) [VPI A]
- toxicity to HeLa cells (HeLa cells [11]): less toxic
- synthesis of LeRNA1–18 (pulse) [1]: inhibits
- IC50 (VSV [2]): 2 ± 0.1 µM
- IC50 (RABV [12]): 26 µM
- CC50 (in vitro [3]): > 100 µM
- Cytotoxicity CC50 (NA cells): > 1 0 0 µM
- capping activity of the PRNTase domain in the VSV L protein [13]: slightly reduced
- IC50 (CHPV RNP): 3.3 ± 0.4 µM
- IC50 (VSV RNP): 0.81 ± 0.04 µM
- VSV LeRNA synthesis (VSV RNP): represses
- inhibition at 20 µM (VSV RNP): 99%
- IC50 (VSV [4]): 0.4 µM
- inhibition at 1 µM ([14]; 1 µM): 77%
- inhibition at 10 µM ([14]; 10 µM): 97%
- inhibition at 17 µM (VSV [15]): 98%
- nuclear condensation and AcGFP expression in infected cells (VSV-AcGFP [16]): abrogate
- inhibition at 17 µM (VSV [17]): 105%
- CC50 (in vitro [5]): > 100 µM
- AC synthesis with the VSV L and P proteins (VSV L protein): inhibit
- inhibition at 1 µM (VSV L protein; 1 µM, read-out: inhibition of AC synthesis with the VSV L protein alone): 85%
- AC synthesis with the VSV L and P proteins (Figure S4) (VSV L protein; 10 µM): strongest
- inhibition at 10 µM (VSV L protein; 10 µM, read-out: inhibition of AC synthesis with the VSV L protein alone): 100%
- step of VSV infection inhibited (time-of-addition) (VSV-AcGFP [18]): inhibits VSV infection at an early post-entry step
- Anti-CHPV Activity SI (CC50/IC50) (CHPV [6]): >13
- IC50 (CHPV [6]; read-out: Anti-CHPV Activity IC50 (CHPV-induced metabolic shut-down)): 7.9 ± 0.4 µM
- concentration that almost completely abolished VSV production (VSV [19]): ≥ 12.5 µM
- Cytotoxicity CC50 (HeLa cells [7]): > 1 0 0 µM
- VSV-induced cell rounding and detachment (VSV [20]): inhibited
- IC50 (VSV [20]; read-out: Anti-VSV Activity IC50 (VSV-induced metabolic shut-down)): 0.42 ± 0.02 µM
- Anti-RABV activity SI (CC50/IC50) (RABV [21]): > 4
- cytotoxic effects on BHK-21 cells (BHK-21 cells): little or no cytotoxic effects
- IC50 (CHPV [9]): 8 µM
- antiviral effects against HPIV-3 (HPIV-3 [10]): neither of the compounds showed any antiviral effects
- inhibition of in vitro mRNA synthesis of HPIV-3 (HPIV-3 RNP): not

Compound: Cc1cc2c(cc1O)NC(=O)CC2c1cc(C(C)(C)C)[nH]n1 (stereo not shown) [VPI B]
- toxicity to HeLa cells (HeLa cells [11]): less toxic
- IC50 (VSV [2]): 6 µM
- CC50 (in vitro [3]): > 100 µM
- Cytotoxicity CC50 (NA cells): > 1 0 0 µM
- inhibition at 20 µM (VSV RNP): 89%
- IC50 (VSV [4]): 1 µM
- inhibition at 17 µM (VSV [15]): 92%
- nuclear condensation and AcGFP expression in infected cells (VSV-AcGFP [16]): abrogate
- inhibition at 17 µM (VSV [17]): 102%
- CC50 (in vitro [5]): > 100 µM
- Anti-CHPV Activity SI (CC50/IC50) (CHPV [6]): >9
- concentration that almost completely abolished VSV production (VSV [19]): ≥ 25 µM
- Cytotoxicity CC50 (HeLa cells [7]): > 1 0 0 µM
- VSV-induced cell rounding and detachment (VSV [20]): inhibited
- inhibitory effect on RABV gene expression (RABV [21]): little or no inhibitory effect
- cytotoxic effects on BHK-21 cells (BHK-21 cells): little or no cytotoxic effects
- IC50 (CHPV [9]): 11 ± 1 µM
- antiviral effects against HPIV-3 (HPIV-3 [10]): neither of the compounds showed any antiviral effects

Compound: Cc1cc2c(cc1O)NC(=O)CC2c1c[nH]nc1-c1ccc(F)cc1 (stereo not shown) [VPI C]
- inhibition at 20 µM (VSV RNP): 72%
- inhibition at 17 µM (VSV [15]): 63%
- inhibition at 17 µM (VSV [17]): 58%

Compound: Cc1cc2c(cc1O)NC(=O)CC2c1cc2ccccc2n1C (stereo not shown) [VPI D]
- inhibition at 20 µM (VSV RNP): 72%
- inhibition at 17 µM (VSV [15]): 57%
- inhibition at 17 µM (VSV [17]): 55%

Compound: COc1cc2c(cc1C1CC(=O)Nc3cc(O)c(C)cc31)CCC2 (stereo not shown) [VPI E]
- inhibition at 20 µM (VSV RNP): 72%
- inhibition at 17 µM (VSV [15]): 94%
- inhibition at 17 µM (VSV [17]): 50%

Compound: Cc1cc2c(cc1O)NC(=O)CC2c1ccc(-c2cc[nH]n2)o1 (stereo not shown) [VPI F]
- effect on VSV mRNA synthesis, in words (VSV RNP; at 20 µM): weak inhibitory effect
- inhibition at 20 µM (VSV RNP): 34%
- inhibition at 17 µM (VSV [15]): 69%
- inhibition at 17 µM (VSV [17]): 48%
- AC synthesis with the VSV L and P proteins (Figure S4) (VSV L protein; 10 µM): weakest

Compound: Cc1cc2c(cc1O)NC(=O)CC2c1ccc(Oc2ccccc2)cc1 (stereo not shown) [VPI G]
- inhibition at 20 µM (VSV RNP): 68%
- inhibition at 17 µM (VSV [15]): 54%
- inhibition at 17 µM (VSV [17]): 46%

Compound: COc1cc2c(cc1C1CC(=O)Nc3cc(O)c(C)cc31)OCCCO2 (stereo not shown) [VPI H]
- inhibition at 20 µM (VSV RNP): 73%
- inhibition at 17 µM (VSV [15]): 53%
- inhibition at 17 µM (VSV [17]): 34%
